Reference: publication PMC6277767, “Broad and Region-Specific Impacts of the Synthetic Cannabinoid CP 55,940 in Adolescent and Adult Female Mouse Brains” (Frontiers in Molecular Neuroscience, 2018)

Tested on: CD1 female mouse brain lipidome
Test: Brain-region lipid levels (HPLC/MS/MS lipidomics) 2 h after single i.p. 3 mg/kg CP 55,940 vs vehicle
Type: in vivo
Conditions: cerebellum, 3 mg/kg CP 55,940
Procedure: The Bloomington Institutional Animal Care and Use Committee of Indiana University reviewed and approved the animal procedures. Female mice from the CD1 strain were utilized to match our study examining THC’s effects on the brain lipidome ([Leishman et al., 2018]). Mice were given a single i.p. injection of either 3 mg/kg CP or 1:1:18 cremophor:ethanol:saline vehicle (please refer to the section “3 mg/kg CP Is Relevant for Synthetic Cannabinoid Abuse and Has Stronger Effects on the Female Mouse Brain Lipidome During Adolescence” for a justification of dose and use of female mice). Three different age groups were given injections: PND 35 and PND 50 adolescents, and adult mice (PND 113). At least eight mice in each age group received CP and at least eight received vehicle. Matching the THC study time course ([Leishman et al., 2018]), mice were sacrificed via rapid decapitation 2 h after injection. Brains were immediately removed and flash-frozen in liquid nitrogen, and then stored at -80°C until dissections were performed. Brains were dissected on an ice-cold dissection plate into the following regions: STR, HIPP, CER, THAL, CTX, HYP, MID, and STEM. These abbreviations for these brain areas will be used exclusively when discussing the results generated by these specific dissections. Each dissected area was immediately placed in liquid nitrogen and then stored at -80°C until used for lipid extraction.
Tissue extracts were performed as previously described ([Bradshaw et al., 2006]; [Stuart et al., 2013]; [Raboune et al., 2014]; [Leishman et al., 2016a],[b], [2017], [2018]). First, samples were shock frozen in liquid nitrogen, weighed, and transferred to a centrifuge tube. The mass of the largest sample was multiplied by 50 to determine how many milliliters of HPLC-grade methanol (Fisher, Fair Lawn, NJ, United States) to add. Then, samples were spiked with 500 pmol deuterium-labeled NAGly (d8NAGly; Cayman Chemical, Ann Arbor, MI, United States). Samples were placed on ice in darkness for 2 h then individually homogenized and centrifuged at 19,000 × g for 20 min at 20°C. Supernatants were diluted with HPLC water (purified in house) to make a solution of 75% water, 25% supernatant. Lipids were partially purified on C18 solid phase extraction columns (Agilent, Palo Alto, CA, United States). A series of four elutions with 1.5 mL of 60%, 75%, 85%, and 100% methanol were collected ([Stuart et al., 2013]; [Leishman et al., 2016a],[b], [2018]).
As previously described ([Bradshaw et al., 2006]; [Tan et al., 2006]; [Smoum et al., 2010]; [Stuart et al., 2013]; [Tortoriello et al., 2013]; [Raboune et al., 2014]; [Leishman et al., 2016a],[b], [2017], [2018]), samples were analyzed using an Applied Biosystems API 3000 triple quadrupole mass spectrometer with electrospray ionization (Foster City, CA, United States). Using an Agilent XDB-C18 reversed phase analytical column and optimized mobile phase gradients, 20 μL from each elution were chromatographed. Two Shimadzu 10ADvp pumps (Columbia, MD, United States) provided the pressure for gradient elution. Mobile phase A: 20% methanol, 80% water (v/v) and 1 mM ammonium acetate (Sigma, St. Louis, MO, United States). Mobile phase B: 100% methanol, 1 mM ammonium acetate. Every method run began with 0% mobile phase B, reached 100% mobile phase B flowing at 0.2 mL/min, and gradually returned to 0% mobile phase B.
This screening library will be referred to as the lipidome when discussing data from this study. HPLC/MS/MS data were analyzed using Analyst software (Applied Biosystems) ([Bradshaw et al., 2006]; [Tan et al., 2006]; [Stuart et al., 2013]; [Tortoriello et al., 2013]; [Raboune et al., 2014]; [Leishman et al., 2016a],[b], [2017], [2018]). Chromatograms (Supplementary Figure 3) were generated by determining the retention time of analytes from the analytical column with a [M-1] or [M+1] parent peak and a fragmentation peak corresponding to the programmed values. […]

CCCCCCC(C)(C)c1ccc([C@@H]2C[C@H](O)CC[C@H]2CCCO)c(O)c1 [CP 55,940]
PGE2: Magnitude (x Veh level) (adult): 0.70 x Veh level | PGF2α: Direction (relative to Veh) (adult): ↓ | PGF2α: Magnitude (x Veh level) (adult): 0.67 x Veh level | phosphoLEA: Direction (relative to Veh) (adult): ↓ | phosphoLEA: Magnitude (x Veh level) (adult): 0.71 x Veh level | 2-arachidonoyl glycerol: Direction (relative to Veh) (PND 35): ↓ | 2-arachidonoyl glycerol: Magnitude (x Veh level) (PND 35): 0.80 x Veh level | 2-linoleoyl glycerol: Direction (relative to Veh) (PND 35): ↓ | 2-linoleoyl glycerol: Magnitude (x Veh level) (PND 35): 0.75 x Veh level | 6-ketoPGF1α: Magnitude (x Veh level) (PND 35): 0.61 x Veh level | Arachidonic acid: Direction (relative to Veh) (PND 35): ↓ | Arachidonic acid: Magnitude (x Veh level) (PND 35): 0.92 x Veh level | N-arachidonoyl GABA: Direction (relative to Veh) (PND 35): ↓ | N-arachidonoyl GABA: Magnitude (x Veh level) (PND 35): 0.72 x Veh level | N-arachidonoyl alanine: Direction (relative to Veh) (PND 35): ↓ | N-arachidonoyl alanine: Magnitude (x Veh level) (PND 35): 0.71 x Veh level | N-arachidonoyl glycine: Direction (relative to Veh) (PND 35): ↓ | N-arachidonoyl glycine: Magnitude (x Veh level) (PND 35): 0.89 x Veh level | N-arachidonoyl methionine: Direction (relative to Veh) (PND 35): ↓ | N-arachidonoyl methionine: Magnitude (x Veh level) (PND 35): 0.63 x Veh level | N-arachidonoyl serine: Direction (relative to Veh) (PND 35): ↓ | N-arachidonoyl serine: Magnitude (x Veh level) (PND 35): 0.74 x Veh level | N-arachidonoyl taurine: Direction (relative to Veh) (PND 35): ↓ | N-arachidonoyl taurine: Magnitude (x Veh level) (PND 35): 0.87 x Veh level | N-arachidonoyl tyrosine: Direction (relative to Veh) (PND 35): ↓ | N-arachidonoyl tyrosine: Magnitude (x Veh level) (PND 35): 0.70 x Veh level | N-docosahexaenoyl GABA: Direction (relative to Veh) (PND 35): ↓ | N-docosahexaenoyl GABA: Magnitude (x Veh level) (PND 35): 0.81 x Veh level | N-docosahexaenoyl alanine: Direction (relative to Veh) (PND 35): ↓ | N-docosahexaenoyl alanine: Magnitude (x Veh level) (PND 35): 0.72 x Veh level | N-docosahexaenoyl glycine: Direction (relative to Veh) (PND 35): ↓ | N-docosahexaenoyl glycine: Magnitude (x Veh level) (PND 35): 0.92 x Veh level | N-docosahexaenoyl leucine: Direction (relative to Veh) (PND 35): ↑ | N-docosahexaenoyl leucine: Magnitude (x Veh level) (PND 35): 1.44 x Veh level | N-docosahexaenoyl serine: Direction (relative to Veh) (PND 35): ↓ | N-docosahexaenoyl serine: Magnitude (x Veh level) (PND 35): 0.72 x Veh level | N-docosahexaenoyl tyrosine: Direction (relative to Veh) (PND 35): ↓ | N-docosahexaenoyl tyrosine: Magnitude (x Veh level) (PND 35): 0.84 x Veh level | N-linoleoyl glycine: Direction (relative to Veh) (PND 35): ↓ | N-linoleoyl glycine: Magnitude (x Veh level) (PND 35): 0.89 x Veh level | N-linoleoyl leucine: Direction (relative to Veh) (PND 35): ↑ | N-linoleoyl leucine: Magnitude (x Veh level) (PND 35): 1.29 x Veh level | N-linoleoyl phenylalanine: Direction (relative to Veh) (PND 35): ↑ | N-linoleoyl phenylalanine: Magnitude (x Veh level) (PND 35): 1.28 x Veh level | N-oleoyl GABA: Direction (relative to Veh) (PND 35): ↓ | N-oleoyl GABA: Magnitude (x Veh level) (PND 35): 0.83 x Veh level | N-oleoyl ethanolamine: Direction (relative to Veh) (PND 35): ↓ | N-oleoyl ethanolamine: Magnitude (x Veh level) (PND 35): 0.81 x Veh level | N-oleoyl leucine: Direction (relative to Veh) (PND 35): ↑ | N-oleoyl leucine: Magnitude (x Veh level) (PND 35): 1.25 x Veh level | N-oleoyl phenylalanine: Direction (relative to Veh) (PND 35): ↑
